This passage reports IC50 results from patent publication US20260015337A1 (Trawsfynydd Therapeutics, Inc., priority 2022, published 2026).

A value given as a limit tells only on which side of the number the result lay.

This test concerns the target 3CL Protease (Severe acute respiratory syndrome coronavirus 2, UniProt P0DTD1). The test is described as follows: 3CL Protease enzymatic activity assay (BPS Bioscience Assay Kit #78043-1, fluorescence). The test is classed as biochemical, SARS-CoV-2. The conditions noted are these: Table A; 30 min preincubation, 40 μM substrate, 4 hours at room temperature; read-out: IC50, nM (3CL Protease enzymatic activity). Here is the method: For determination of 3CL Protease enzymatic activity was used Assay Kit of BPS Bioscience, San Diego, CA (Catalog #78043-1).
All samples and controls should be tested in duplicate. • 1) Just before use, dilute 0.5 M DTT 500 times into the 3CL Protease Assay Buffer to obtain a DTT concentration of 1 mM. For example, add 10 μl of 0.5 M DTT to 5 ml of assay buffer. Prepare enough DTT-containing buffer as required for the assay. Store the remaining assay buffer at −20° C. • 2) Thaw the 3CL Protease on ice. Briefly spin the tube containing the enzyme to recover the full content of the tube. Note: 3CL Protease enzyme is sensitive to freeze/thaw cycles. […] Note: The exact concentration and volume of enzyme is lot-specific and will be indicated on the tube. Calculate required dilution from the information in the tube. It may be desirable to dilute the enzyme serially to avoid using large amounts of protease assay buffer for the dilution. • 4) Add 30 μl of diluted 3CL Protease to the wells designated as “Positive Control,” “Inhibitor Control,” and “Test Inhibitor.” Add 30 μl of Assay Buffer (containing 1 mM DTT) to the “Blank” wells. • 5) Dilute the 50 μg GC376 in 200 μl of Assay Buffer to obtain a 500 μM solution. Add 10 μl of GC376 (500 μM) to the wells labeled “Inhibitor Control”. Aliquot and store the remaining solution at −80° C. • 6) Prepare the Test Inhibitor. The final concentration of DMSO in the assay should not exceed 1%. If the Test Inhibitor is dissolved in DMSO, make a 100-fold higher concentration of the compound than the highest desired concentration. Then make a 20-fold dilution in 1× Assay Buffer (containing DTT). At this step the compound concentration is 5-fold higher than the final concentration. If the test inhibitor is dissolved in water, make a 5-fold higher concentration of the test compound than the final desired concentration in the Assay buffer (containing DTT). Add 10 μl of Test Inhibitor to each well designated “Test Inhibitor”. • 7) Diluent Solution (no inhibitor): add 10 μl of assay buffer (if the test compound is water soluble and was diluted in assay buffer) or 10 μl of 5% DMSO diluted in assay buffer (if DMSO was used to dissolve the test inhibitor) to “Blank” and “Positive Control” wells.
• 8) Preincubate for 30 min at room temperature with slow shaking. • 9) Dilute the 25 μl of 3CL Protease substrate (10 mM) in 1.25 ml of the Assay Buffer containing DTT, to make a […] solution. The final concentration of the 3CL Protease substrate in a 50 μl reaction is 40 μM. • 10) Start the reaction by adding 10 μl of the substrate solution to all the wells. Seal the plate with the plate sealer and incubate for 4 hours at room temperature with slow shaking. • 11) Measure the fluorescence intensity in a microtiter plate-reader fluorometer (Tecan Spark Cyto) capable of excitation at a wavelength 360 nm and detection of emission at a wavelength 460 nm. The fluorescence intensity can also be measured kinetically. The “Blank” value is subtracted from all other values. • The % inhibition was then used to calculate the IC50 values.
In the case of `CCOC(=O)N[C@@H](C(=O)N1CC2C(C1C(=O)N[C@@H](C#N)Cc1cc3cc(C)ccc3[nH]c1=O)C2(C)C)C(C)(C)C` (stereo in doubt) [Compound 201, Ethyl N-[(1R)-1-[(1S)-2-[[(1R)-1-cyano-2-(6-methyl-2-oxo-1H-quinolin-3-yl)ethyl]carbamoyl]-6,6-dimethyl-3-azabicyclo[3.1.0]hexane-3-carbonyl]-2,2-dimethyl-propyl]carbamate], the IC50 was 50 to 100 nM.
Then `Cc1ccc2[nH]c(=O)c(C[C@H](C#N)NC(=O)C3C4C(CN3C(=O)[C@H](NC(=O)OC(C)C)C(C)(C)C)C4(C)C)cc2c1` (stereo in doubt) [Compound 202, Isopropyl N-[(1R)-1-[(1S)-2-[[(1R)-1-cyano-2-(6-methyl-2-oxo-1H-quinolin-3-yl)ethyl]carbamoyl]-6,6-dimethyl-3-azabicyclo[3.1.0]hexane-3-carbonyl]-2,2-dimethyl-propyl]carbamate], with 100 to 250 nM; and `Cc1ccc2[nH]c(=O)c(C[C@H](C#N)NC(=O)C3C4C(CN3C(=O)[C@H](NS(=O)(=O)C3CC3)C(C)(C)C)C4(C)C)cc2c1` (stereo in doubt) [Compound 203, (1S)—N-[(1R)-1-Cyano-2-(6-methyl-2-oxo-1H-quinolin-3-yl)ethyl]-3-[(2R)-2-(cyclopropylsulfonylamino)-3,3-dimethyl-butanoyl]-6,6-dimethyl-3-azabicyclo[3.1.0]hexane-2-carboxamide], with 50 to 100 nM; and `Cc1ccc2[nH]c(=O)c(C[C@H](C#N)NC(=O)C3C4C(CN3C(=O)[C@H](NC(=O)C(C)C)C(C)(C)C)C4(C)C)cc2c1` (stereo in doubt) [Compound 204, (1S)—N-[(1R)-1-cyano-2-(6-methyl-2-oxo-1H-quinolin-3-yl)ethyl]-3-[(2R)-3,3-dimethyl-2-(2-methylpropanoylamino)butanoyl]-6,6-dimethyl-3-azabicyclo[3.1.0]hexane-2-carboxamide], with 50 to 100 nM.
The figure for `Cc1ccc2[nH]c(=O)c(C[C@@H](C#N)NC(=O)[C@@H]3[C@H]4[C@H](CN3C(=O)[C@@H](NC(=O)C(F)(F)F)C(C)(C)C)C4(C)C)cc2c1` [Compound 113, (1S,2S,5S)—N-[(1S)-1-cyano-2-(6-methyl-2-oxo-1H-quinolin-3-yl)ethyl]-3-[(2S)-3,3-dimethyl-2-[(2,2,2-trifluoroacetyl)amino]butanoyl]-6,6-dimethyl-3-azabicyclo[3.1.0]hexane-2-carboxamide] is below 50 nM; for `Cc1ccc2[nH]c(=O)c(C[C@H](C#N)NC(=O)[C@@H]3[C@H]4[C@H](CN3C(=O)[C@@H](NC(=O)C(F)(F)F)C(C)(C)C)C4(C)C)cc2c1` [Compound 114, (1S,2S,5S)—N-[(1R)-1-cyano-2-(6-methyl-2-oxo-1H-quinolin-3-yl)ethyl]-3-[(2S)-3,3-dimethyl-2-[(2,2,2-trifluoroacetyl)amino]butanoyl]-6,6-dimethyl-3-azabicyclo[3.1.0]hexane-2-carboxamide] it is at least 1000 nM; for `Cc1ccc2c(c1)CC(C[C@@H](C#N)NC(=O)[C@@H]1[C@@H]3[C@H](CN1C(=O)[C@@H](NC(=O)C(F)(F)F)C(C)(C)C)C3(C)C)C(=O)N2` (stereo partly drawn) [Compound 120, (1R,2S,5S)—N-[(1S)-1-Cyano-2-(6-methyl-2-oxo-3,4-dihydro-1H-quinolin-3-yl)ethyl]-3-[(2S)-3,3-dimethyl-2-[(2,2,2-trifluoroacetyl)amino]butanoyl]-6,6-dimethyl-3-azabicyclo[3.1.0]hexane-2-carboxamide] it is below 50 nM.
Turning to `CC(C)(C)[C@H](NS(C)(=O)=O)C(=O)N1C[C@H]2[C@H]([C@H]1C(=O)NC(C#N)Cc1cc3cnccc3[nH]c1=O)C2(C)C` (stereo partly drawn) [Compound 130, (1S,2S,5S)-N-[1-cyano-2-(2-oxo-1H-1,6-naphthyridin-3-yl)ethyl]-3-[(2S)-2-(methanesulfonamido)-3,3-dimethyl-butanoyl]-6,6-dimethyl-3-azabicyclo[3.1.0]hexane-2-carboxamide], the IC50 is below 50 nM.
Then `Cc1ccc2[nH]c(=O)c(CC(C#N)NC(=O)[C@@H]3[C@H]4[C@H](CN3C(=O)[C@@H](Nc3ccnc(C)n3)C(C)(C)C)C4(C)C)cc2c1` (stereo partly drawn) [Compound 153, 3-[3,3-Dimethyl-2-(2-methyl-pyrimidin-4-ylamino)-butyryl]-6,6-dimethyl-3-aza-bicyclo[3.1.0]hexane-2-carboxylic acid [1-cyano-2-(6-methyl-2-oxo-1,2-dihydro-quinolin-3-yl)-ethyl]-amide], with at least 1000 nM; and `Cc1ccc2[nH]c(=O)c(CC(C#N)NC(=O)[C@H](Cc3ccccc3)NC(=O)[C@@H](NS(=O)(=O)CC(F)(F)F)C(C)(C)C)cc2c1` (stereo partly drawn) [Compound 164, (2S)—N-((2S)-1-((1-Cyano-2-(6-methyl-2-oxo-1,2-dihydroquinolin-3-yl)ethyl)amino)-1-oxo-3-phenylpropan-2-yl)-3,3-dimethyl-2-((2,2,2-trifluoroethyl)sulfonamido)butanamide], with 100 to 250 nM.
As for `Cc1ccc2[nH]c(=O)c(CC(C#N)NC(=O)[C@H](Cc3cc(F)c(F)cc3F)NC(=O)[C@@H](NS(=O)(=O)CC(F)(F)F)C(C)(C)C)cc2c1` (stereo partly drawn) [Compound 166, (2S)—N-((2S)-1-((1-Cyano-2-(6-methyl-2-oxo-1,2-dihydroquinolin-3-yl)ethyl)amino)-1-oxo-3-(2,4,5-trifluorophenyl)propan-2-yl)-3,3-dimethyl-2-((2,2,2-trifluoroethyl)sulfonamido)butanamide], the IC50 was in the range of 500 to 1000 nM.
The figure for `CC(C)(C)[C@H](NC(=O)C(F)(F)F)C(=O)N1C[C@H]2[C@@H]([C@H]1C(=O)N[C@@H](C#N)Cc1cc3cnccc3[nH]c1=O)C2(C)C` [Compound 173, (1R,2S,5S)—N—((R)-1-Cyano-2-(2-oxo-1,2-dihydro-1,6-naphthyridin-3-yl)ethyl)-3-((S)-3,3-dimethyl-2-(2,2,2-trifluoroacetamido)butanoyl)-6,6-dimethyl-3-azabicyclo[3.1.0]hexane-2-carboxamide] is at least 1000 nM; for `CC(C)(C)[C@H](NC(=O)C(F)(F)F)C(=O)N1C[C@H]2[C@@H]([C@H]1C(=O)N[C@H](C#N)Cc1cc3cnccc3[nH]c1=O)C2(C)C` [Compound 174, (1R,2S,5S)—N—((S)-1-Cyano-2-(2-oxo-1,2-dihydro-1,6-naphthyridin-3-yl)ethyl)-3-((S)-3,3-dimethyl-2-(2,2,2-trifluoroacetamido)butanoyl)-6,6-dimethyl-3-azabicyclo[3.1.0]hexane-2-carboxamide] it is below 50 nM.
The figure for `COc1cc2[nH]c(=O)c(C[C@@H](C#N)NC(=O)[C@@H]3[C@@H]4[C@H](CN3C(=O)[C@@H](NC(=O)C(F)(F)F)C(C)(C)C)C4(C)C)cc2cc1C` [Compound 175, (1R,2S,5S)—N-[(1S)-1-Cyano-2-(7-methoxy-6-methyl-2-oxo-1H-quinolin-3-yl)ethyl]-3-[(2S)-3,3-dimethyl-2-[(2,2,2-trifluoroacetyl)amino]butanoyl]-6,6-dimethyl-3-azabicyclo[3.1.0]hexane-2-carboxamide] is 50 to 100 nM; for `Cc1cc2cc(C[C@@H](C#N)NC(=O)[C@@H]3[C@@H]4[C@H](CN3C(=O)[C@@H](NC(=O)C(F)(F)F)C(C)(C)C)C4(C)C)c(=O)[nH]c2cc1F` [Compound 176, (1R,2S,5S)—N—((S)-1-Cyano-2-(7-fluoro-6-methyl-2-oxo-1,2-dihydroquinolin-3-yl)ethyl)-3-((S)-3,3-dimethyl-2-(2,2,2-trifluoroacetamido)butanoyl)-6,6-dimethyl-3-azabicyclo[3.1.0]hexane-2-carboxamide] it is 50 to 100 nM.
